Results taken from patent US4108857A, “Imidazolylmethyl methanobenzazocines” (Sterling Drug Inc., priority 1977, dated 1978).
Converted amounts (≈) assume the structure as drawn. Counter-ions that a name gives are not always drawn.

Tests used:
[1] = pH of solution; assay type: physicochemical; details: 1 percent solution (Example 26 as dihydrochloride, Example 32 as such, others as hydrochloride)
[2] = precipitation on gradual pH adjustment of the aqueous solution; assay type: physicochemical; details: for pH at which a precipitate formed: addition of N/10 sodium hydroxide solution to aqueous solution of hydrochloride; for precipitation on adjusting to pH 7.0: 1 percent solution
[3] = solubility in water or aqueous acid; details: water

SMILES | pH of 1 percent aqueous solution [1] | pH at which a precipitate formed [2] | solubility [3] | precipitation on adjusting to pH 7.0 ([2]; N/10 sodium hydroxide solution) | precipitation on adjusting to pH 7.0 ([2]; N/10 hydrochloric acid solution)
CC[C@]12CCN(CC3CC3)[C@H](Cc3ccccc31)[C@@H]2C (relative stereo) [Example 3, 1,2,3,4,5,6-hexahydro-3-cyclopropylmethyl-cis-(6-ethyl-11-methyl)-2,6-methano-3-benzazocine] | 5.6 | 6.5 | 200 mg/mL (≈ 742 mM) |  | 
CC(C)=CCN1CC[C@@]2(C)c3ccccc3C[C@@H]1[C@@H]2C (relative stereo) [Example 10, racemic 1,2,3,4,5,6-hexahydro-3-(3-methyl-2-butenyl)-cis-6,11-dimethyl-2,6-methano-3-benzazocine] | 6.1 |  | 200 mg/mL (≈ 742 mM) | no precipitate was formed | 
C[C@H]1[C@H]2Cc3ccccc3[C@]1(C)CCN2CCC(=O)O (relative stereo) [Example 24, racemic 1,2,3,4,5,6-hexahydro-3-(2-carboxyethyl)-cis-6,11-dimethyl-2,6-methano-3-benzazocine hydrochloride] | 3.0 |  | 100 mg/mL | no precipitate formed | 
C[C@H]1[C@H]2Cc3ccccc3[C@]1(C)CCN2CCCN (relative stereo) [Example 26, racemic 1,2,3,4,5,6-hexahydro-3-(3-aminopropyl)-cis-6,11-dimethyl-2,6-methano-3-benzazocine] | 6.6 |  | 200 mg/mL (≈ 774 mM) | no precipitate was formed | 
CCCCNC(=O)N1CC[C@@]2(C)c3ccccc3C[C@@H]1[C@@H]2C (relative stereo) [Example 32, racemic 1,2,3,4,5,6-hexahydro-3-(n-butylcarbamyl)-cis-6,11-dimethyl-2,6-methano-3-benzazocine] | 9.2 |  | 200 mg/mL (≈ 666 mM) |  | no precipitate was formed
C[C@H]1[C@H]2Cc3ccccc3[C@]1(C)CCN2C(=O)c1cccnc1 (relative stereo) [Example 34, racemic 1,2,3,4,5,6-hexahydro-3-nicotinoyl-cis-6,11-dimethyl-2,6-methano-3-benzazocine] | 2.7 | 3.0 | 200 mg/mL (≈ 653 mM) |  | 
COC(CN1CC[C@@]2(C)c3ccccc3C[C@@H]1[C@@H]2C)OC (relative stereo) [Example 39, racemic 1,2,3,4,5,6-hexahydro-3-(2,2-dimethoxyethyl)cis-6,11-dimethyl-2,6-methano-3-benzazocine] | 5.9 |  | 200 mg/mL (≈ 691 mM) | no precipitate formed | 
CC[C@H]1[C@H]2Cc3ccccc3[C@]1(C)CCN2C (relative stereo) [racemic 1,2,3,4,5,6-hexahydro-3-methyl-cis-(6-methyl-11-ethyl)-2,6-methano-3-benzazocine] | 6.7 |  | 50 mg/mL (≈ 218 mM) | no precipitate formed | 
